Assay: Differential Pulse Voltammetry (DPV) with microneedle sensor array, oxycodone and metabolites (FIG. 10)
Assay type: physicochemical
Details: applied voltages from 0 to 1.2V

Row | SMILES | current peak (DPV) | voltage of the current peak (DPV)
1 | COc1ccc2c3c1O[C@H]1C(=O)CC[C@@]4(O)[C@@H](C2)NCC[C@]314 [noroxycodone] | about 165 μA | about 0.95 V
2 | COc1ccc2c3c1O[C@H]1C(=O)CC[C@@]4(O)[C@@H](C2)N(C)CC[C@]314 [oxycodone] | about 100 μA | about 0.75 V
3 | CN1CC[C@]23c4c5ccc(O)c4O[C@H]2C(=O)CC[C@@]3(O)[C@H]1C5 [oxymorphone] | about 30 μA | about 0.45 V

From patent US20230346272A1 (priority 2021, published 2023)
